Consider 16 compounds from patent US8378092B2, “Chlorothiophene-amides as inhibitors of coagulation factors Xa and thrombin” (Sanofi, priority 2008, dated 2013).

The target in assay [1] is human thrombin (Homo sapiens, UniProt P00734). The assay can be described thus: Chromogenic thrombin inhibition assay (substrate S-2238). Particulars: purified human thrombin, chromogenic substrate S-2238 83 μM, 37° C., mean of duplicates. It counts as biochemical.
Assay [2] addresses T1, human coagulation factor Xa (Homo sapiens, UniProt P00742).
T1 construct: purchased Enzyme Research Laboratories HFXa
The assay can be described thus: Chromogenic F Xa inhibition assay (substrate S-2765). It counts as biochemical. Particulars: purified human factor Xa, chromogenic substrate S-2765 62.5 μM, 37° C., mean of duplicates.

As a reminder, the IC50 is the concentration at which inhibition is half-maximal. A lower IC50 goes with greater potency.

Counter-ions that a name gives are not always drawn.

T1 sequence (P00742 235-488 limits assumed): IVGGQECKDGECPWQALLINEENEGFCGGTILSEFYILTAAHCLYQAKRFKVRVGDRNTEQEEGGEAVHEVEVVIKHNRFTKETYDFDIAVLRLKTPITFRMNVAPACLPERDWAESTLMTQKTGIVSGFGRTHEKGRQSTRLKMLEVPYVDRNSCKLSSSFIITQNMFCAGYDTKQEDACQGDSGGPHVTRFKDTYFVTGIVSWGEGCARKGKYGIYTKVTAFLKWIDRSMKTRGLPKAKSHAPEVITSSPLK
T1 sequence (P00742 41-179 partner limits assumed): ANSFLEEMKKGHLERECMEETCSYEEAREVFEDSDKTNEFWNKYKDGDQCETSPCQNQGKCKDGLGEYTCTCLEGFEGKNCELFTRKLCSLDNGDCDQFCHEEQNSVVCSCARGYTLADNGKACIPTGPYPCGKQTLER

On to `CCc1c(N2CCOCC2=O)cccc1S(=O)(=O)N[C@@H](CNC(=O)c1csc(Cl)c1)C(=O)N1CCOC[C@@H]1C` [Example 2, 5-Chloro-thiophene-3-carboxylic acid [(S)-2-[2-ethyl-3-(3-oxo-morpholin-4-yl)-benzenesulfonylamino]-3-((S)-3-methyl-morpholin-4-yl)-3-oxo-propyl]-amide], for which the IC50 in assay [1] stood at 250 nM; in assay [2] it was 9.8 nM.

In the case of `CCc1c(N2CCOCC2=O)cccc1S(=O)(=O)N[C@@H](CNC(=O)c1ccc(Cl)s1)C(=O)N1CCO[C@H](C)C1` [Example 3, 5-Chloro-thiophene-2-carboxylic acid [(S)-2-[2-ethyl-3-(3-oxo-morpholin-4-yl)-benzenesulfonylamino]-3-((R)-2-methyl-morpholin-4-yl)-3-oxo-propyl]-amide], the IC50 in assay [1] came to 55 nM; in assay [2], 1.48 nM.

In the case of `CCc1c(N2CCOCC2=O)cccc1S(=O)(=O)N[C@@H](CNC(=O)c1ccc(Cl)s1)C(=O)N1CCC[C@@H](OC)C1` [Example 4, 5-Chloro-thiophene-2-carboxylic acid [(S)-2-[2-ethyl-3-(3-oxo-morpholin-4-yl)-benzenesulfonylamino]-3-((R)-3-methoxy-piperidin-1-yl)-3-oxo-propyl]-amide], the results for the IC50 in assay [1] and in assay [2] were 61 nM and 2.8 nM, respectively.

On to `O=C(NC[C@H](NS(=O)(=O)c1cccc(N2CCOCC2=O)c1Cl)C(=O)N1CCCCCC1)c1ccc(Cl)s1` [Example 5, 5-Chloro-thiophene-2-carboxylic acid {(S)-3-azepan-1-yl-2-[2-chloro-3-(3-oxo-morpholin-4-yl)-benzenesulfonylamino]-3-oxo-propyl}-amide], for which the IC50 in assay [1] turned out to be 49 nM; in assay [2] it was 9.8 nM.

Turning to `COc1c(N2CCOCC2=O)cc(F)cc1S(=O)(=O)N[C@@H](CNC(=O)c1ccc(Cl)s1)C(=O)N1CCCCCC1` [Example 6, 5-Chloro-thiophene-2-carboxylic acid {(S)-3-azepan-1-yl-2-[5-fluoro-2-methoxy-3-(3-oxo-morpholin-4-yl)-benzenesulfonylamino]-3-oxo-propyl}-amide], the figures for the IC50 in assay [1] and in assay [2] were 5.64 nM and 0.88 nM, respectively.

In the case of `O=C(NC[C@H](NS(=O)(=O)c1cccc(N2CCCCC2=O)c1C(F)(F)F)C(=O)N1CCN(C2CC2)CC1)c1ccc(Cl)s1` [Example 7, 5-Chloro-thiophene-2-carboxylic acid {(S)-3-(4-cyclopropyl-piperazin-1-yl)-3-oxo-2-[3-(2-oxo-piperidin-1-yl)-2-trifluoromethyl-benzenesulfonylamino]propyl}amide trifluoroacetate], the IC50 in assay [1] was 222 nM; in assay [2] it was 1.02 nM.

With `O=C(NC[C@H](NS(=O)(=O)c1cccc(N2CCCCC2=O)c1OC(F)F)C(=O)N1CCN(C2CC2)CC1)c1ccc(Cl)s1` [Example 8, 5-Chloro-thiophene-2-carboxylic acid {(S)-3-(4-cyclopropyl-piperazin-1-yl)-2-[2-difluoromethoxy-3-(2-oxo-piperidin-1-yl)-benzenesulfonylamino]-3-oxo-propyl}-amide trifluoroacetate], the values for the IC50 in assay [1] and in assay [2] were 10.4 nM and 0.98 nM, respectively.

Consider `CCOC(=O)C1CCN(C(=O)[C@H](CNC(=O)c2ccc(Cl)s2)NS(=O)(=O)c2cccc(N3CCCCC3=O)c2OC(F)F)CC1` [Example 9, 1-{(S)-3-[(5-Chloro-thiophene-2-carbonyl)-amino]-2-[2-difluoromethoxy-3-(2-oxo-piperidin-1-yl)-benzenesulfonylamino]-propionyl}-piperidine-4-carboxylic acid ethyl ester], for which the IC50 in assay [1] turned out to be 10.5 nM; in assay [2] it was 0.52 nM.

With `Cc1noc(C2CCN(C(=O)[C@H](CNC(=O)c3ccc(Cl)s3)NS(=O)(=O)c3cccc(N4CCCCC4=O)c3OC(F)F)CC2)n1` [Example 11, 5-Chloro-thiophene-2-carboxylic acid {(S)-2-[2-difluoromethoxy-3-(2-oxo-piperidin-1-yl)-benzenesulfonylamino]-3-[4-(3-methyl-[1,2,4]oxadiazol-5-yl)-piperidin-1-yl]-3-oxo-propyl}amide], the IC50 in assay [1] was determined as 381 nM; in assay [2], 1.74 nM.

For the compound `CN1CCN(C(=O)[C@H](CNC(=O)c2ccc(Cl)s2)NS(=O)(=O)c2cc(F)cc(N3CCCC3)c2Cl)CC1` [Example 13, 5-Chloro-thiophene-2-carboxylic acid [(S)-2-(2-chloro-5-fluoro-3-pyrrolidin-1-yl-benzenesulfonylamino)-3-(4-methyl-piperazin-1-yl)-3-oxo-propyl]-amide trifluoro acetate], the IC50 was found to be 19 nM in assay [1] and 1.44 nM in assay [2].

On to `O=C(NC[C@H](NS(=O)(=O)c1cccc(N2CCCC2=O)c1Cl)C(=O)N1CCNCC1)c1ccc(Cl)s1` [Example 15, 5-Chloro-thiophene-2-carboxylic acid {(S)-2-[2-chloro-3-(2-oxo-pyrrolidin-1-yl)-benzenesulfonylamino]-3-oxo-3-piperazin-1-yl-propyl}-amide], for which the IC50 in assay [1] was found to be 658 nM; in assay [2], 1.32 nM.

Regarding `COCCN1CCN(C(=O)[C@H](CNC(=O)c2ccc(Cl)s2)NS(=O)(=O)c2cc(F)cc(N3CCCC3=O)c2C)CC1` [Example 16, 5-Chloro-thiophene-2-carboxylic acid {(S)-2-[5-fluoro-2-methyl-3-(2-oxo-pyrrolidin-1-yl)-benzenesulfonylamino]-3-[4-(2-methoxy-ethyl)-piperazin-1-yl]-3-oxo-propyl}-amide trifluoro acetate], the IC50 is 54 nM in assay [1] and 1.3 nM in assay [2].

As to `CN1CCN(C(=O)[C@H](CNC(=O)c2ccc(Cl)s2)NS(=O)(=O)c2cccc(N3CCCC3=O)c2C(F)F)CC1` [Example 17, 5-Chloro-thiophene-2-carboxylic acid [(S)-2-[2-difluoromethyl-3-(2-oxo-pyrrolidin-1-yl)-benzenesulfonylamino]-3-(4-methyl-piperazin-1-yl)-3-oxo-propyl]-amide trifluoro acetate], the results for the IC50 in assay [1] and in assay [2] were 28 nM and 1.81 nM, respectively.

With `Cc1c(N2CCCC2=O)cccc1S(=O)(=O)N[C@@H](CNC(=O)c1ccc(Cl)s1)C(=O)N1CCc2sccc2C1` [Example 154, 5-Chloro-thiophene-2-carboxylic acid {(S)-3-(6,7-dihydro-4H-thieno[3,2-c]pyridin-5-yl)-2-[2-methyl-3-(2-oxo-pyrrolidin-1-yl)-benzenesulfonylamino]-3-oxo-propyl}-amide], the IC50 in assay [1] was 3.48 nM; in assay [2], 1.92 nM.

Consider `O=C(NC[C@H](NS(=O)(=O)c1cc(F)cc(N2CCCCC2=O)c1Cl)C(=O)N1CCN(CC(F)(F)F)CC1)c1ccc(Cl)s1` [Example 183, 5-Chloro-thiophene-2-carboxylic acid {(S)-2-[2-chloro-5-fluoro-3-(2-oxo-piperidin-1-yl)-benzenesulfonylamino]-3-oxo-3-[4-(2,2,2-trifluoro-ethyl)-piperazin-1-yl]-propyl}-amide], for which the IC50 in assay [1] stood at 40 nM; in assay [2], 0.4 nM.

For the compound `Cc1c(N2CCCC2=O)cc(F)cc1S(=O)(=O)N[C@@H](CNC(=O)c1ccc(Cl)s1)C(=O)N1CCN(C)CC1` [Example 202, 5-Chloro-thiophene-2-carboxylic acid [(S)-2-[5-fluoro-2-methyl-3-(2-oxo-pyrrolidin-1-yl)-benzenesulfonylamino]-3-(4-methyl-piperazin-1-yl)-3-oxo-propyl]-amide], the results for the IC50 in assay [1] and in assay [2] were 27 nM and 1.31 nM, respectively.
